# Measurements taken from patent US20140357655A1, “SPIROINDOLINE DERIVATIVES AS GONADOTROPIN- RELEASING HORMONE RECEPTOR ANTAGONISTS” (Bayer Intellectual Property GmbH, priority 2012, published 2014).
# Target: T1, human GnRH receptor (Homo sapiens, UniProt P30968)
# T1 sequence (P30968 1-328): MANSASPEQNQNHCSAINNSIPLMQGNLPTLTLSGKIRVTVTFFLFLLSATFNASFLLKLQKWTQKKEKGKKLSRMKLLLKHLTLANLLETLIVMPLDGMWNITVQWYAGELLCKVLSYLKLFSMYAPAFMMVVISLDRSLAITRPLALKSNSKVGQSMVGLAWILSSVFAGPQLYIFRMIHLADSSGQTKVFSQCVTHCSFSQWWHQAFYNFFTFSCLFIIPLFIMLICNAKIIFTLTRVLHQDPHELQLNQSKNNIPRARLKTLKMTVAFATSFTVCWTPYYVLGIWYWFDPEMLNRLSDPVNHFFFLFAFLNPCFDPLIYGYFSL
# Experiment: IP-One HTRF assay with buserelin (at EC80) stimulation
# Assay type: cell-based
# Conditions: CHO cells stably expressing human GnRH receptor, read-out: Potency in IP-One HTRF assay, given as IC50
# How it was run: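 Ten-point duplicate titrations (20 μM to 1 nM) were fitted by 4-parameter model to normalized 665/620 nm HTRF ratios, 0% = no compound, 100% = no agonist. Assay measured IP1 accumulation in human GnRH-R CHO cells stimulated 1 h at 37° C with EC80 buserelin, then lysed 1 h at 22° C.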
row,SMILES,IC50 [µM]
1,"O=C(NCc1ccccc1Cl)c1ccc2c(c1)C1(CCS(=O)(=O)CC1)C(C1CC1)N2S(=O)(=O)c1cccc(OC(F)(F)F)c1 (stereo not shown) [Example 81, N-(2-chlorobenzyl)-2-cyclopropyl-1-{[3-(trifluoromethoxy)phenyl]sulfonyl}-1,2,2′,3′,5′,6′-hexahydrospiro[indole-3,4′-thiopyran]-5-carboxamide 1′,1′-dioxide]",0.437
2,"O=C(NCc1ncc(F)cc1Cl)c1ccc2c(c1)C1(CCS(=O)(=O)CC1)C(C1CC1)N2S(=O)(=O)c1ccc(F)cc1 (single isomer, unassigned) [Example 17.1, N-[(3-chloro-5-fluoropyridin-2-yl)methyl]-2-cyclopropyl-1-[(4-fluorophenyl)sulfonyl]-1,2,2′,3′,5′,6′-hexahydrospiro[indole-3,4′-thiopyran]-5-carboxamide 1′,1′-dioxide]",0.139
3,"CC1N(S(=O)(=O)c2ccc(F)cc2)c2ccc(C(=O)NCc3ccccn3)cc2C12CCOCC2 (stereo not shown) [Example 6, 1-[(4-fluorophenyl)sulfonyl]-2-methyl-N-(2-pyridylmethyl)-1,2,2′,3′,5′,6′-hexahydrospiro[indole-3,4′-pyran]-5-carboxamide]",6.72
4,"COC(=O)c1cccc(NC(=O)c2ccc3c(c2)C2(CCS(=O)(=O)CC2)C(C2CC2)N3S(=O)(=O)c2cccc(OC(F)(F)F)c2)c1 (stereo not shown) [Example 82, methyl 3-{[(2-cyclopropyl-1′,1′-dioxido-1-{[3-(trifluoromethoxy)phenyl]sulfonyl}-1,2,2′,3′,5′,6′-hexahydrospiro[indole-3,4′-thiopyran]-5-yl)carbonyl]amino}benzoate]",0.609
5,"N#Cc1cccc(S(=O)(=O)N2c3ccc(C(=O)Nc4ccon4)cc3C3(CCS(=O)(=O)CC3)C2C2CC2)c1 (stereo not shown) [Example 80, 1-[(3-cyanophenyl)sulfonyl]-2-cyclopropyl-N-(1,2-oxazol-3-yl)-1,2,2′,3′,5′,6′-hexahydrospiro[indole-3,4′-thiopyran]-5-carboxamide 1′,1′-dioxide]",0.218
6,"CC1N(S(=O)(=O)c2ccc(F)cc2)c2ccc(C(=O)NCc3ccccc3S(C)(=O)=O)cc2C12CCOCC2 (stereo not shown) [Example 9, 1-[(4-fluorophenyl)sulfonyl]-N-(2-mesylbenzyl)-2-methyl-1,2,2′,3′,5′,6′-hexahydrospiro[indole-3,4′-pyran]-5-carboxamide]",4.83
7,"Cc1cncc(NC(=O)c2ccc3c(c2)C2(CCS(=O)(=O)CC2)C(C2CC2)N3S(=O)(=O)c2cccc(OC(F)(F)F)c2)c1 (stereo not shown) [Example 85, 2-cyclopropyl-N-(5-methylpyridin-3-yl)-1-{[3-(trifluoromethoxy)phenyl]sulfonyl}-1,2,2′,3′,5′,6′-hexahydrospiro[indole-3,4′-thiopyran]-5-carboxamide 1′,1′-dioxide]",0.804
8,"CN(C)S(=O)(=O)c1cccc(NC(=O)c2ccc3c(c2)C2(CCS(=O)(=O)CC2)C(C2CC2)N3S(=O)(=O)c2ccc(F)cc2)c1 (single isomer, unassigned) [Example 37.2, 2-cyclopropyl-N-[3-(N,N-dimethylsulfamoyl)phenyl]-1-[(4-fluorophenyl)sulfonyl]-1,2,2′,3′,5′,6′-hexahydrospiro[indole-3,4′-thiopyran]-5-carboxamide 1′,1′-dioxide]",0.044
9,"CC1N(S(=O)(=O)c2ccc(F)cc2)c2ccc(C(=O)NCc3ncccc3Cl)cc2C12CCOCC2 (single isomer, unassigned) [Example 1.1, N-[(3-Chloropyridin-2-yl)methyl]-1-[(4-fluorophenyl)sulfonyl]-2-methyl-1,2,2′,3′,5′,6′-hexahydrospiro[indole-3,4′-pyran]-5-carboxamide]",0.146
10,"O=C(Nc1ccc2c(c1)C1(CCS(=O)(=O)CC1)C(C1CC1)N2S(=O)(=O)c1ccc(F)cc1)C1CCCCC1 (stereo not shown) [Example 98, N-{2-cyclopropyl-1-[(4-fluorophenyl)sulfonyl]-1′,1′-dioxido-1,2,2′,3′,5′,6′-hexahydrospiro[indole-3,4′-thiopyran]-5-yl}cyclohexanecarboxamide]",0.039
11,"COC(=O)c1cccc(NC(=O)c2ccc3c(c2)C2(CCS(=O)(=O)CC2)C(C2CC2)N3S(=O)(=O)c2ccc(F)cc2)c1 (single isomer, unassigned) [Example 34.2, methyl 3-[({2-cyclopropyl-1-[(4-fluorophenyl)sulfonyl]-1′,1′-dioxido-1,2,2′,3′,5′,6′-hexahydrospiro[indole-3,4′-thiopyran]-5-yl}carbonyl)amino]benzoate]",0.825
12,"COc1cccc(S(=O)(=O)N2c3ccc(C(=O)NCc4ncccc4C(F)(F)F)cc3C3(CCS(=O)(=O)CC3)C2C2CC2)c1 (single isomer, unassigned) [Example 39.2, 2-cyclopropyl-1-[(3-methoxyphenyl)sulfonyl]-N-{[3-(trifluoromethyl)pyridin-2-yl]methyl}-1,2,2′,3′,5′,6′-hexahydrospiro[indole-3,4′-thiopyran]-5-carboxamide 1′,1′-dioxide]",0.565
13,"CC1N(S(=O)(=O)c2ccc(F)cc2)c2ccc(C(=O)NCc3ccccc3C(F)(F)F)cc2C12CCOCC2 (stereo not shown) [Example 4, 1-[(4-fluorophenyl)sulfonyl]-2-methyl-N-[2-(trifluoromethyl)benzyl]-1,2,2′,3′,5′,6′-hexahydrospiro[indole-3,4′-pyran]-5-carboxamide]",0.281
14,"NC(=O)c1cccc(NC(=O)c2ccc3c(c2)C2(CCS(=O)(=O)CC2)C(C2CC2)N3S(=O)(=O)c2ccc(F)cc2)c1 (single isomer, unassigned) [Example 51.2, N-(3-carbamoylphenyl)-2-cyclopropyl-1-[(4-fluorophenyl)sulfonyl]-1,2,2′,3′,5′,6′-hexahydrospiro[indole-3,4′-thiopyran]-5-carboxamide 1′,1′-dioxide]",1.18
15,"COc1cccc(S(=O)(=O)N2c3ccc(C(=O)Nc4cccc(S(=O)(=O)N(C)C)c4)cc3C3(CCS(=O)(=O)CC3)C2C2CC2)c1 (single isomer, unassigned) [Example 43.1, 2-cyclopropyl-N-[3-(N,N-dimethylsulfamoyl)phenyl]-1-[(3-methoxyphenyl)sulfonyl]-1,2,2′,3′,5′,6′-hexahydrospiro[indole-3,4′-thiopyran]-5-carboxamide 1′,1′-dioxide]",0.344
16,"CN(C)C(=NS(=O)(=O)c1cccc(NC(=O)c2ccc3c(c2)C2(CCS(=O)(=O)CC2)C(C2CC2)N3S(=O)(=O)c2ccc(F)cc2)c1)N(C)C (stereo not shown) [Example 64, N-(3-{[bis(dimethylamino)methylidene]sulfamoyl}phenyl)-2-cyclopropyl-1-[(4-fluorophenyl)sulfonyl]-1,2,2′,3′,5′,6′-hexahydrospiro[indole-3,4′-thiopyran]-5-carboxamide 1′,1′-dioxide]",0.0093
17,"O=C(NCC1CC1)c1ccc2c(c1)C1(CCS(=O)(=O)CC1)C(C1CC1)N2S(=O)(=O)c1ccc(F)cc1 (single isomer, unassigned) [Example 35.1, 2-cyclopropyl-N-(cyclopropylmethyl)-1-[(4-fluorophenyl)sulfonyl]-1,2,2′,3′,5′,6′-hexahydrospiro[indole-3,4′-thiopyran]-5-carboxamide 1′,1′-dioxide]",0.394
18,"COC(=O)c1cccc(S(=O)(=O)N2c3ccc(C(=O)NCc4ccccc4Cl)cc3C3(CCS(=O)(=O)CC3)C2C2CC2)c1 (single isomer, unassigned) [Example 60.2, methyl 3-({5-[(2-chlorobenzyl)carbamoyl]-2-cyclopropyl-1′,1′-dioxido-2′,3′,5′,6′-tetrahydrospiro[indole-3,4′-thiopyran]-1(2H)-yl}sulfonyl)benzoate]",1.14
19,"N#Cc1ccc(S(=O)(=O)N2c3ccc(C(=O)NCc4ccccc4C(F)(F)F)cc3C3(CCS(=O)(=O)CC3)C2C2CC2)cc1 (single isomer, unassigned) [Example 72.1, 1-[(4-cyanophenyl)sulfonyl]-2-cyclopropyl-N-[2-(trifluoromethyl)benzyl]-1,2,2′,3′,5′,6′-hexahydrospiro[indole-3,4′-thiopyran]-5-carboxamide 1′,1′-dioxide]",0.011
20,"NS(=O)(=O)c1cccc(NC(=O)c2ccc3c(c2)C2(CCS(=O)(=O)CC2)C(C2CC2)N3S(=O)(=O)c2ccc(F)cc2)c1 (single isomer, unassigned) [Example 30.2, 2-cyclopropyl-1-[(4-fluorophenyl)sulfonyl]-N-(3-sulfamoylphenyl)-1,2,2′,3′,5′,6′-hexahydrospiro[indole-3,4′-thiopyran]-5-carboxamide 1′,1′-dioxide]",0.19
21,"COc1cccc(S(=O)(=O)N2c3ccc(C(=O)NCc4ccccc4C(F)(F)F)cc3C3(CCS(=O)(=O)CC3)C2C2CC2)c1 (single isomer, unassigned) [Example 40.2, 2-cyclopropyl-1-[(3-methoxyphenyl)sulfonyl]-N-[2-(trifluoromethyl)benzyl]-1,2,2′,3′,5′,6′-hexahydrospiro[indole-3,4′-thiopyran]-5-carboxamide 1′,1′-dioxide]",0.632
22,"COc1cccc(S(=O)(=O)N2c3ccc(C(=O)Nc4cccc(S(=O)(=O)N=C(N(C)C)N(C)C)c4)cc3C3(CCS(=O)(=O)CC3)C2C2CC2)c1 (stereo not shown) [Example 62, N-(3-{[bis(dimethylamino)methylidene]sulfamoyl}phenyl)-2-cyclopropyl-1-[(3-methoxyphenyl)sulfonyl]-1,2,2′,3′,5′,6′-hexahydrospiro[indole-3,4′-thiopyran]-5-carboxamide 1′,1′-dioxide]",0.0098
